Results: US20230372244A1, “Methods of Preparing Cell-Derived Vesicles” (NATIONAL UNIVERSITY OF SINGAPORE, priority 2020, published 2023)
Structures can show the parent of a compound that is named as a salt.

Tests used:
MCF-7 cells [1] = experiment: Cyquant DNA content of MCF-7 cells after DOX and PEMF; assay type: cell-based; settings: DOX 100 nM; 3 mT PEMF 1 h daily for 3 days
Method: (§1) FIG. 13. […] (A) Schematic of PEMF and DOX treatment regime for DNA quantification. Cells were exposed to 3 mT for 1 h daily for 3 successive days. DOX (100 nM) was administered on the final day 1 h before the last PEMF exposure. Cellular DNA content was measured 24 h after the last PEMF exposure. (B) Bar chart of pooled data for Cyquant DNA content in fold change 24 h post-DOX and PEMF treatments. (C) Colony formation paradigm for MCF-7 cells treated with DOX and PEMFs. (D) MCF-7 colony formation in the presence of 10 and 20 nM DOX, with and without PEMF exposure as indicated. Cells were seeded at a low density of 100 cells per well. (E) Colony survival in 10 nM DOX under low-density conditions. […] (F) MCF-7 colony formation in the presence of 10 and 20 nM DOX, with and without PEMF exposure under high-density seeding of 1000 cells per well. The images on the right are the zoom-in images of cells under the same treatment paradigm. […] (H) Absolute DCH2FDA-ROS fluorescence from MCF-7 cells. […]
(§2) For cell enumeration using trypan blue exclusion assay, MCF-7, MDA-MB-231, or MCF10A cells were seeded at 6000 cells/cm^2 per well of a 6-well plate. […] Cyquant stained DNA was measured using at 480/520 nm using Cytation 5 microplate reader (BIOTEK).

MCF-7 cells [2] = experiment: Clonogenic assay of MCF-7 cells with DOX and PEMF; assay type: cell-based; settings: 20 nM DOX, low density of 100 cells per well
Method: as §1, with “well.” for “well. The images on the right are the zoom-in images of cells under the same treatment paradigm.”
In vitro clonogenic assay was performed using crystal violet staining (24). […] The mean survival factor (colony count) was determined as the number of surviving cells over the number of cells plated and normalized to the survival factor of the control group expressed as fold change. The colony size relative frequency was determined by binning colonies into several bins, according to their relative size from the smallest to the largest colonies after normalizing to the total number of cells.

MCF-7/TRPC1 cells = experiment: DNA content and colony formation of TRPC1 overexpressing MCF-7 cells with DOX and PEMF; assay type: cell-based; settings: TRPC1 overexpression versus vector cells
Method: FIG. 17. […] (A) PEMF and DOX treatment regime for MCF-7/TRPC1 cell DNA quantification. (B) DNA fold change relative to 0 mT vector cells. Statistical analysis was done using the two-sample t-test. (C) Colony formation after 10 days in the presence of 0 nM, 10 nM or 20 nM DOX, without PEMF exposure. Images of colony formation and the quantification of colony size frequency distribution normalized to the total number of colonies in the presence of 10 nM DOX for (D) vector and (E) MCF-7/TRPC1 cells or 20 nM DOX for (F) vector and (G) MCF-7/TRPC1 cells, concomitant with daily PEMF exposure. *, p<0.05, **, p<0.01 and ***, p<0.001 indicate the statistical difference between the respective 0 mT and 3 mT condition within the same bin. (H) PEMF-modulated proliferation of TRPC1-silenced MCF-7 cells 48 h post dsiRNA transfection. […]
as §2
In vitro clonogenic assay was performed using crystal violet staining (24). […] The mean survival factor (colony count) was determined as the number of surviving cells over the number of cells plated and normalized to the survival factor of the control group expressed as fold change. […]

MCF-7 xenograft = MCF-7 xenograft in mice, DOX and/or PEMF; assay type: in vivo; settings: weekly PEMF and DOX exposures
Method: (A) Schematic of weekly PEMF and DOX exposures on MCF-7 xenograft in mice. Implanted cells were allowed to grow for 3 weeks before the initiation of DOX and/or PEMF treatment. Apoptotic cell determination was performed at the end of the study. […] N=6 mice, with *, p<0.05, **, p 1137<0.01, and #, p<0.0001. The error bars are expressed as the standard error of the mean.
The NSG mice were purchased from Jackson's laboratory and used at 8-10 weeks of age. Briefly, each female NSG mouse was implanted with a subcutaneous 60-day (0.36 mg) slow-release estradiol pellet (Innovative Research of America). […] The tumors were allowed to grow for 3 weeks. For MCF-7, 1×10^6 cells were counted and mixed in a 40-60% ratio with Matrigel Growth Factor (Bio Laboratories, Cat No. 354230). The cells are injected subcutaneously into the dorsal flank of the animals corresponding to the different treatment groups. The animals were given 20 mg/kg DOX intravenously and/or PEMFs stimulation for 1 h weekly for 5 weeks. At the end of the study, tumor volume was measured and isolated for apoptotic cell determination.
For apoptotic cell determination, the tumors were dissociated to single cells using the MACS Tumor Dissociation Kit in combination with the gentleMACS Dissociator (Miltenyi Biotec) as according to the manufacturer's protocol. After dissociation, the cells were filtered through a 30 μm MACS SmartStrainer. […]

[3] = tested on: patient-derived tumor xenografts; experiment: Patient-derived tumor xenografts in NSG mice, DOX and/or PEMF; assay type: in vivo; settings: 20 mg/kg DOX intravenously and/or PEMF 1 h weekly for 5 weeks
Method: (A) Schematic of PEMF and DOX exposures regimes used on mice hosting patient-derived tumor xenografts. Implanted tumors were allowed to grow for 3 weeks before the initiation of DOX and/or PEMF treatments. Tumor volumes were measured each week while apoptotic cell determination was performed at the end of the study. Each data point represents the mean from 5 experimental runs derived from the tumors obtained from 5 patients, each of which was equally divided amongst the 5 treatment groups. (B) Changes in tumor volume (mm^3) for 5 weeks. (C) Representative scatter dot-plots showing cell population of dissociated tumors sorted based on annexin and propidium iodide staining. (D) Bar chart represents pooled data of apoptotic cell percentages analyzed using flow cytometry. N=5 mice, with *, p<0.05, **, p<0.01, and #p<0.0001. The error bars are expressed as the standard error of the mean.
The NSG mice were purchased from Jackson's laboratory and used at 8-10 weeks of age. Briefly, each female NSG mouse was implanted with a subcutaneous 60-day (0.36 mg) slow-release estradiol pellet (Innovative Research of America). Each patient tumor was equally divided into 5 chunks and implanted into the dorsal flank of 5 animals corresponding to the 5 different treatment groups. […] At the end of the study, tumor volume was measured and isolated for apoptotic cell determination. […]

TRPA1 = molecular target: T1, TRPA1 (Mus musculus, UniProt Q8BLA8); experiment: TRP channel functional assessment of immobilized CDVs (menthol, Fluo-4 calcium signal); assay type: biochemical, Murine; settings: Fluo-4 loaded myoblast-derived CDVs on microfluidic chip; versus CDVs not administered menthol
T1 construct: containing Fluo-4 loaded myoblast-derived CDVs from the same culture; endogenous in cells
T1 sequence (Q8BLA8 whole entry): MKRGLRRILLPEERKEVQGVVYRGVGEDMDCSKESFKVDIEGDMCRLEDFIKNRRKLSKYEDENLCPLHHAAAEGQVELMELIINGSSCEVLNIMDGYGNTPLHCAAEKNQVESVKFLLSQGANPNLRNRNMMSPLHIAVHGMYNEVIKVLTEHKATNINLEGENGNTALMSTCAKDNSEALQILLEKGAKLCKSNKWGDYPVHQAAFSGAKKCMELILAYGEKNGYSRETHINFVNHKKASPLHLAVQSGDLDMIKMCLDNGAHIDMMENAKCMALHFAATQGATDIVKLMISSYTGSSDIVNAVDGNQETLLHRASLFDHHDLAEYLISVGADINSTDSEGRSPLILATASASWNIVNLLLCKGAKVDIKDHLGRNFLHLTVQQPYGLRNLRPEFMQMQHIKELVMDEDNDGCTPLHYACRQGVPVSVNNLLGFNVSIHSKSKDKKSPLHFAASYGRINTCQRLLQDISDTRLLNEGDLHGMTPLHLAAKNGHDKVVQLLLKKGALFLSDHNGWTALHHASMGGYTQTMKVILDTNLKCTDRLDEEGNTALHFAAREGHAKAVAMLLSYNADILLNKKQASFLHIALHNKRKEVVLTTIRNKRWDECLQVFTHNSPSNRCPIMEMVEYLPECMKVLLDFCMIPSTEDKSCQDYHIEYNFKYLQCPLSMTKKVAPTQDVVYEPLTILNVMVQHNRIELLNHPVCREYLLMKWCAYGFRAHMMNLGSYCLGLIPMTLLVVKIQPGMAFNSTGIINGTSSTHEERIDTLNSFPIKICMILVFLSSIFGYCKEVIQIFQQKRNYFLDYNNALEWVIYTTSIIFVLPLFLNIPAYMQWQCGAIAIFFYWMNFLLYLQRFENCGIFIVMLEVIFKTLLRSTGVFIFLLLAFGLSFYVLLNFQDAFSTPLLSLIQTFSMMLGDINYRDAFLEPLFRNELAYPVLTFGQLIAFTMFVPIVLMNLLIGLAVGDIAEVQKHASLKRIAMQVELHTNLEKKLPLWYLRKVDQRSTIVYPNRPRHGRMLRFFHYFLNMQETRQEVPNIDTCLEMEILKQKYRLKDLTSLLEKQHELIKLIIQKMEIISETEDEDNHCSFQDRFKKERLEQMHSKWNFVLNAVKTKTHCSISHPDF
Excerpt: FIG. 1. Schematic depicting the tests applied to CDVs to ascertain 1) innate channel functionality and 2) recuperative potential for cellular respiratory and proliferative capacities. 1) Cell-free assays were comprised of examining specific TRP channel activation by menthol (TRPA1) or magnetic fields (TRPC1). 2) Cell-based assays entailed administering wild type CDVs to TRPC1-knockdown myoblasts followed by testing for recuperation of cellular proliferative and mitochondrial respiratory capacities.
FIG. 4. A) Schematics of the CDV immobilization 1), loading 2), and TRP channel functional assessment 3). […] Red fluorescence is Texas Red as part of the biochemical linker, the dotted line indicates the edge of the print. […] Data were simultaneously recorded from 3 parallel channels of the same microfluidic chip containing Fluo-4 loaded myoblast-derived CDVs from the same culture, 2 channels with menthol administration and one without (negative control). […] Representative calcium responses (Rate of Rise (ROR) normalized to starting value) from intact C2C12 myoblasts D) or CDVs E) derived from wild type C2C12 myoblasts (left) or C2C12 CRISPR/Cas9 knockdown myoblasts, 60 (middle), and 61 (right), in response to 10 min magnetic field exposure (1.5 mT) while in suspension immediately before reading. […]

COc1cccc2c1C(=O)c1c(O)c3c(c(O)c1C2=O)C[C@@](O)(C(=O)CO)C[C@@H]3O[C@H]1C[C@H](N)[C@H](O)[C@H](C)O1 [DOX, Doxorubicin hydrochloride]
MCF-7 cell vulnerability to doxorubicin (DNA content) (MCF-7 cells [1]): enhances MCF-7 cell vulnerability to doxorubicin | colony number (MCF-7 cells [2]): too few to quantify accurately | sensitivity of MCF-7 cells to doxorubicin (MCF-7/TRPC1 cells): TRPC1 overexpression sensitizes MCF-7 cells to doxorubicin | MCF-7 tumor growth (MCF-7 xenograft): synergize with doxorubicin to inhibit MCF-7 tumor growth in vivo | tumor growth [3]: synergize with DOX to inhibit tumor growth in vivo

CC1CCC(C(C)C)C(O)C1 (stereo not drawn) [Menthol, menthol]
intra-CDV calcium concentration (TRPA1): increases in intra-CDV calcium concentration
